Reference: patent US10329289B2, “6,7-dihydro-5H-pyrrolo[3,4-B]pyridin-5-one allosteric modulators of the M4 muscarinic acetylcholine receptor” (Merck Sharp & Dohme Corp., priority 2015, dated 2019)

Molecular target: T1, human M4 muscarinic acetylcholine receptor (Homo sapiens, UniProt P08173)
T1 construct: expressed in transfected cells; host or cells: CHO-K1
T1 sequence (P08173 1-479): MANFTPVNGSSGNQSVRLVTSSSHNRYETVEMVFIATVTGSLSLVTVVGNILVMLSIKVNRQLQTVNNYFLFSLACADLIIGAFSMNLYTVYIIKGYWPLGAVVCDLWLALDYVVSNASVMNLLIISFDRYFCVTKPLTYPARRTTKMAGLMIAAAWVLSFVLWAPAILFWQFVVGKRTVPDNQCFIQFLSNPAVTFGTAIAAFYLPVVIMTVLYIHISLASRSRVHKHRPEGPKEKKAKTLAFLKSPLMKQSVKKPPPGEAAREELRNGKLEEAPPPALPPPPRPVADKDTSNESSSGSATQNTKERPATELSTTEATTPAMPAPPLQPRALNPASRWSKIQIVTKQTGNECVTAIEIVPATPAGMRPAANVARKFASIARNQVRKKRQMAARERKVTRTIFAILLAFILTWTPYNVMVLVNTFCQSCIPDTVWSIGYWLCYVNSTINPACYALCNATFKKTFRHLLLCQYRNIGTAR
Assay: human FLIPR-based M4 PAM assay (Ca2+ mobilization, CHO-K1 cells with human M4 receptor and Gαqi5)
Assay type: cell-based
Conditions: acetylcholine at 20% of maximum response, read-out: M4 PAM IP
Experimental: In a typical experiment the M4 muscarinic acetylcholine receptor modulating activity of the compounds of the present invention was determined in accordance with the following experimental method. CHO-K1 cells stably transfected with human M4 receptor and chimeric G-protein Gαqi5 (Coward P, et al., Analytical Biochemistry, 270:242-248 (1999)) are thawed from liquid N2 storage, resuspended in growth medium, plated in black, clear bottom 384 well plates, and incubated 16-20 hours at 37° C., 5% CO2. On the day of assay, growth medium is removed, the cells are washed 2 times with wash buffer, and cells are incubated in dye loading buffer at 37° C., 5% CO2 for ˜1 hour. […] Next, 10 uL of acetylcholine is added (final concentration calculated so as to achieve 20% of the maximum acetycholine response), and the fluorescence reading is continued for 3.5 min. In some cases, a third addition of acetylcholine (final concentration calculated to achieve 70% of the maximal acetylcholine response) is performed. The resulting dose response curves are fit to a 4 parameter logistic equation and the final result is determined as the inflection point (IP) of the curve
CHO-K1 cells stably transfected with human M4 receptor and chimeric G-protein Gαqi5 are thawed from liquid N2 storage, resuspended in growth medium, plated in black, clear bottom 384 well plates, and incubated 16-20 hours at 37° C., 5% CO2.
On the day of assay, growth medium is removed, the cells are washed 2 times with wash buffer, and cells are incubated in dye loading buffer at 37° C., 5% CO2 for ˜1 h. […] Next, 10 uL of acetylcholine is added (final concentration calculated so as to achieve 20% of the maximum acetycholine response), and the fluorescence reading is continued for 3.5 min. In some cases, a third addition of acetylcholine (final concentration calculated to achieve 70% of the maximal acetylcholine response) is performed.

Row | EC50 [µM] | SMILES
1 | 0.032 | Cc1cc2c(nc1N1CCC(Oc3ccc4c(c3)CCCN4)CC1)CNC2=O [Example 22, 3-methyl-2-(4-((1,2,3,4-tetrahydroquinolin-6-yl)oxy)piperidin-1-yl)-6,7-dihydro-5H-pyrrolo[3,4-b]pyridin-5-one]
2 | 0.07 | Cc1cc2c(nc1N1CC[C@H](Oc3ccc4c(cnn4C)c3)[C@H](F)C1)CNC2=O [Example 23, 2-((3R,4S)-3-fluoro-4-((1-methyl-1H-indazol-5-yl)oxy)piperidin-1-yl)-3-methyl-6,7-dihydro-5H-pyrrolo[3,4-b]pyridin-5-one]
3 | 0.167 | Cc1cc2c(nc1N1CC[C@H](Oc3ccc4c(cnn4C)c3)[C@@H](F)C1)CNC2=O [Example 24, 2-((3S,4S)-3-fluoro-4-((1-methyl-1H-indazol-5-yl)oxy)piperidin-1-yl)-3-methyl-6,7-dihydro-5H-pyrrolo[3,4-b]pyridin-5-one]
4 | 0.075 | Cc1cc2c(nc1N1CC[C@@H](Oc3ccc4c(cnn4C)c3)[C@H](F)C1)CNC2=O [Example 25, 2-((3R,4R)-3-fluoro-4-((1-methyl-1H-indazol-5-yl)oxy)piperidin-1-yl)-3-methyl-6,7-dihydro-5H-pyrrolo[3,4-b]pyridin-5-one]
5 | 0.028 | Cc1cc2c(nc1N1CCC(Oc3ccc4[nH]ccc4c3)CC1)CNC2=O [Example 26, 2-(4-((1H-indol-5-yl)oxy)piperidin-1-yl)-3-methyl-6,7-dihydro-5H-pyrrolo[3,4-b]pyridin-5-one]
6 | 0.043 | Cc1cc2c(nc1N1CCC(Oc3ccc4c(ccn4C)c3)CC1)CNC2=O [Example 27, 3-methyl-2-(4-((1-methyl-1H-indol-5-yl)oxy)piperidin-1-yl)-6,7-dihydro-5H-pyrrolo[3,4-b]pyridin-5-one]
7 | 0.084 | Cc1cc2c(nc1N1CCC(Oc3cccc(C#N)c3)CC1)[C@@H](C)N(C)C2=O [Example 28A, (R)-3-((1-(3,6,7-trimethyl-5-oxo-6,7-dihydro-5H-pyrrolo[3,4-b]pyridin-2-yl)piperidin-4-yl)oxy)benzonitrile]
8 | 1.98 | Cc1cc2c(nc1N1CCC(Oc3cccc(C#N)c3)CC1)[C@H](C)N(C)C2=O [Example 28B, (S)-3-((1-(3,6,7-trimethyl-5-oxo-6,7-dihydro-5H-pyrrolo[3,4-b]pyridin-2-yl)piperidin-4-yl)oxy)benzonitrile]
9 | 0.063 | COc1ccc(O[C@@H]2CCN(c3nc4c(cc3C)C(=O)NC4)C[C@@H]2C)cn1 [Example 29A, 2-((3S,4R)-4-((6-methoxypyridin-3-yl)oxy)-3-methylpiperidin-1-yl)-3-methyl-6,7-dihydro-5H-pyrrolo[3,4-b]pyridin-5-one]
10 | 30 | COc1ccc(O[C@H]2CCN(c3nc4c(cc3C)C(=O)NC4)C[C@H]2C)cn1 [Example 29B, 2-((3R,4S)-4-((6-methoxypyridin-3-yl)oxy)-3-methylpiperidin-1-yl)-3-methyl-6,7-dihydro-5H-pyrrolo[3,4-b]pyridin-5-one]
11 | 0.025 | COc1ccc(O[C@@H]2CCN(c3nc4c(cc3C)C(=O)NC4)C[C@H]2F)cn1 [Example 30, 2-((3R,4R)-3-fluoro-4-((6-methoxypyridin-3-yl)oxy)piperidin-1-yl)-3-methyl-6,7-dihydro-5H-pyrrolo[3,4-b]pyridin-5-one]
12 | 0.042 | Cc1cc2c(nc1N1CC[C@@H](Oc3ccc4c(cnn4C)c3)[C@@H](F)C1)CN(C)C2=O [Example 31, 2-((3S,4R)-3-fluoro-4-((1-methyl-1H-indazol-5-yl)oxy)piperidin-1-yl)-3,6-dimethyl-6,7-dihydro-5H-pyrrolo[3,4-b]pyridin-5-one]
13 | 0.037 | Cc1cc2c(nc1N1CCC(Oc3ccc4c(cnn4C)c3)CC1)CN(C)C2=O [Example 32, 3,6-dimethyl-2-(4-((l-methyl-1H-indazol-5-yl)oxy)piperidin-1-yl)-6,7-dihydro-5H-pyrrolo[3,4-b]pyridin-5-one]
14 | 0.022 | COc1ccc(O[C@@H]2CCN(c3nc4c(cc3C)C(=O)N(C)C4)C[C@@H]2F)cn1 [Example 33, 2-((3S,4R)-3-fluoro-4-((6-methoxypyridin-3-yl)oxy)piperidin-1-yl)-3,6-dimethyl-6,7-dihydro-5H-pyrrolo[3,4-b]pyridin-5-one]
15 | 0.026 | CCOc1ccc(OC2CCN(c3nc4c(cc3C)C(=O)NC4)CC2)cn1 [Example 34, 2-(4-((6-ethoxypyridin-3-yl)oxy)piperidin-1-yl)-3-methyl-6,7-dihydro-5H-pyrrolo[3,4-b]pyridin-5-one]
16 | 0.024 | Cc1cc2c(nc1N1CC[C@@H](Oc3ccccc3)[C@@H](F)C1)CNC2=O [Example 35, 2-((3S,4R)-3-fluoro-4-phenoxypiperidin-1-yl)-3-methyl-6,7-dihydro-5H-pyrrolo[3,4-b]pyridin-5-one]
17 | 0.302 | Cc1cc2c(nc1N1CCC(OCC3(C#N)CC3)CC1)CNC2=O [Example 36, 1-(((1-(3-methyl-5-oxo-6,7-dihydro-5H-pyrrolo[3,4-b]pyridin-2-yl)piperidin-4-yl)oxy)methyl)cyclo-propane-1-carbonitrile]
18 | 0.03 | Cc1cc2c(nc1N1CCC(Oc3ccc4c(c3)COC4)CC1)CN(C)C2=O [Example 38, 2-(4-((1,3-dihydro-2-benzofuran-5-yl)oxy)piperidin-1-yl)-3,6-dimethyl-6,7-dihydro-5H-pyrrolo[3,4-b]pyridin-5-one]
19 | 1.6 | Cc1cc2c(nc1N1CC[C@@H](Oc3cccc4c3COC4)[C@@H](F)C1)CNC2=O [Example 39, 2-((3S,4R)-4-((1,3-dihydro-2-benzofuran-4-yl)oxy)-3-fluoropiperidin-1-yl)-3-methyl-6,7-dihydro-5H-pyrrolo[3,4-b]pyridin-5-one]
20 | 0.017 | Cc1cc2c(nc1N1CC[C@@H](Oc3ccc4c(c3)COC4)[C@@H](F)C1)CNC2=O [Example 40, 2-((3S,4R)-4-((1,3-dihydro-2-benzofuran-5-yl)oxy)-3-fluoropiperidin-1-yl)-3-methyl-6,7-dihydro-5H-pyrrolo[3,4-b]pyridin-5-one]
21 | 11.3 | Cc1cc2c(nc1N1CCC(OC3CCOC3)CC1)CNC2=O (stereo not shown) [Example 41, 3-methyl-2-(4-((tetrahydrofuran-3-yl)oxy)piperidin-1-yl)-6,7-dihydro-5H-pyrrolo[3,4-b]pyridin-5-one]
22 | 1.73 | Cc1cc2c(nc1N1CCC(OC3CCOCC3)CC1)CNC2=O [Example 42, 3-methyl-2-(4-((tetrahydro-2H-pyran-4-yl)oxy)piperidin-1-yl)-6,7-dihydro-5H-pyrrolo[3,4-b]pyridin-5-one]
23 | 0.155 | Cc1cc2c(nc1N1CC[C@@H](Oc3cccc(C#N)c3)[C@H](O)C1)CNC2=O [Example 43A, 3-(((3R,4R)-3-hydroxy-1-(3-methyl-5-oxo-6,7-dihydro-5H-pyrrolo[3,4-b]pyridin-2-yl)piperidin-4-yl)oxy)benzonitrile]
24 | 0.367 | Cc1cc2c(nc1N1CC[C@H](Oc3cccc(C#N)c3)[C@@H](O)C1)CNC2=O [Example 43B, 3-(((3S,4S)-3-hydroxy-1-(3-methyl-5-oxo-6,7-dihydro-5H-pyrrolo[3,4-b]pyridin-2-yl)piperidin-4-yl)oxy)benzonitrile]
25 | 0.13 | Cc1cc2c(nc1N1CCC(Oc3ccc4c(c3)CCC4)CC1)CNC2=O [Example 44, 2-(4-((2,3-dihydro-1H-inden-5-yl)oxy)piperidin-1-yl)-3-methyl-6,7-dihydro-5H-pyrrolo[3,4-b]pyridin-5-one]
26 | 0.053 | Cc1cc2c(nc1N1CC[C@@H](Oc3cccc(C#N)c3)[C@@H](F)C1)CN(C)C2=O [Example 45, 3-(((3S,4R)-1-(3,6-dimethyl-5-oxo-6,7-dihydro-5H-pyrrolo[3,4-b]pyridin-2-yl)-3-fluoropiperidin-4-yl)oxy)benzonitrile]
27 | 0.032 | Cc1cc2c(nc1N1CC[C@@H](Oc3ccc4c(c3)COC4)[C@@H](F)C1)CN(C)C2=O [Example 46, 2-((3S,4R)-4-((1,3-dihydro-2-benzofuran-5-yl)oxy)-3-fluoropiperidin-1-yl)-3,6-dimethyl-6,7-dihydro-5H-pyrrolo[3,4-b]pyridin-5-one]

Row | SMILES | EC50 [µM]
28 | Cc1cc2c(nc1N1CCC(Oc3ccc(OC4CCC4)nc3)CC1)CNC2=O [Example 37, 2-(4-((6-cyclobutoxypyridin-3-yl)oxy)piperidin-1-yl)-3-methyl-6,7-dihydro-5H-pyrrolo[3,4-b]pyridin-5-one] | 0.172
